Test results published in the supplement of paper PMC13380429.

Columns and labels:
Conditions in all cases: 72 h
[1] = system: U2OS; test: cell viability relative to DMSO; higher = less toxic
[2] = system: Calu-3; test: as above
[3] = system: Caco-2; test: as above
[4] = system: Vero E6; test: as above
[5] = system: HepG2; test: as above
[6] = system: U2OS; test: relative viability EC50 (midpoint between 100% and the lowest measured viability); higher = less toxic
[7] = system: Calu-3; test: as above
[8] = system: Caco-2; test: as above
[9] = system: Vero E6; test: as above
[10] = system: HepG2; test: as above
[11] = system: U2OS; test: drug sensitivity score (DSS) for viability; higher = more toxic; extreme values may be limits of the assay
[12] = system: Calu-3; test: as above
[13] = system: Caco-2; test: as above
[14] = system: Vero E6; test: as above
[15] = system: HepG2; test: as above

SMILES | cell viability ([1]; 1 nM) [%] | cell viability ([1]; 10 nM) [%] | cell viability ([1]; 100 nM) [%] | cell viability ([1]; 1000 nM) [%] | cell viability ([1]; 10000 nM) [%] | cell viability ([2]; 1 nM) [%] | cell viability ([2]; 10 nM) [%] | cell viability ([2]; 100 nM) [%] | cell viability ([2]; 1000 nM) [%] | cell viability ([2]; 10000 nM) [%] | cell viability ([3]; 1 nM) [%] | cell viability ([3]; 10 nM) [%] | cell viability ([3]; 100 nM) [%] | cell viability ([3]; 1000 nM) [%] | cell viability ([3]; 10000 nM) [%] | cell viability ([4]; 1 nM) [%] | cell viability ([4]; 10 nM) [%] | cell viability ([4]; 100 nM) [%] | cell viability ([4]; 1000 nM) [%] | cell viability ([4]; 10000 nM) [%] | cell viability ([5]; 1 nM) [%] | cell viability ([5]; 10 nM) [%] | cell viability ([5]; 100 nM) [%] | cell viability ([5]; 1000 nM) [%] | cell viability ([5]; 10000 nM) [%] | relative viability EC50 [6] [µM] | relative viability EC50 [7] [µM] | relative viability EC50 [8] [µM] | relative viability EC50 [9] [µM] | relative viability EC50 [10] [µM] | drug sensitivity score [11] | drug sensitivity score [12] | drug sensitivity score [13] | drug sensitivity score [14] | drug sensitivity score [15]
Cc1[nH]c(=O)c(C#N)cc1-c1ccc2nccn2c1 [olprinone] | 105 | 102 | 101 | 99.9 | 102 | 107 | 112 | 93.2 | 104 | 98.3 | 98.7 | 99.6 | 91.2 | 92 | 94.8 | 98.5 | 106 | 94.2 | 102 | 96.7 | 93.2 | 102 | 103 | 104 | 104 | > 10 | > 10 | > 10 | > 10 | > 10 | 0 | 0 | 0 | 0 | 0
Cc1oc2nc3c(c(NC(=O)CN4CCCC4=O)c2c1C)CCCC3 [BCI-540] | 100 | 99.8 | 97.8 | 105 | 101 | 90.2 | 101 | 94.4 | 104 | 107 | 94.4 | 99.2 | 99.8 | 103 | 101 | 93.2 | 93.8 | 99.5 | 92.5 | 110 | 88.7 | 100 | 98.5 | 98 | 94.3 | > 10 | > 10 | > 10 | > 10 | > 10 | 0 | 0 | 0 | 0 | 0
